These results are taken from patent US12213970B2, “Pyridinyl sulfonamide derivatives, pharmaceutical compositions and uses thereof” (Boehringer Ingelheim International GmbH, priority 2018, dated 2025).

Counter-ions that a name gives are not always drawn. Like-named read-outs stand apart in the source and are kept apart here. Bounds are passed on as bounds.

One experiment addresses T1, AOC2 (Homo sapiens, UniProt O75106).
T1 construct: host or cells: HEK293 cells (transient transfection), cell homogenate
T1 sequence (O75106 1-756): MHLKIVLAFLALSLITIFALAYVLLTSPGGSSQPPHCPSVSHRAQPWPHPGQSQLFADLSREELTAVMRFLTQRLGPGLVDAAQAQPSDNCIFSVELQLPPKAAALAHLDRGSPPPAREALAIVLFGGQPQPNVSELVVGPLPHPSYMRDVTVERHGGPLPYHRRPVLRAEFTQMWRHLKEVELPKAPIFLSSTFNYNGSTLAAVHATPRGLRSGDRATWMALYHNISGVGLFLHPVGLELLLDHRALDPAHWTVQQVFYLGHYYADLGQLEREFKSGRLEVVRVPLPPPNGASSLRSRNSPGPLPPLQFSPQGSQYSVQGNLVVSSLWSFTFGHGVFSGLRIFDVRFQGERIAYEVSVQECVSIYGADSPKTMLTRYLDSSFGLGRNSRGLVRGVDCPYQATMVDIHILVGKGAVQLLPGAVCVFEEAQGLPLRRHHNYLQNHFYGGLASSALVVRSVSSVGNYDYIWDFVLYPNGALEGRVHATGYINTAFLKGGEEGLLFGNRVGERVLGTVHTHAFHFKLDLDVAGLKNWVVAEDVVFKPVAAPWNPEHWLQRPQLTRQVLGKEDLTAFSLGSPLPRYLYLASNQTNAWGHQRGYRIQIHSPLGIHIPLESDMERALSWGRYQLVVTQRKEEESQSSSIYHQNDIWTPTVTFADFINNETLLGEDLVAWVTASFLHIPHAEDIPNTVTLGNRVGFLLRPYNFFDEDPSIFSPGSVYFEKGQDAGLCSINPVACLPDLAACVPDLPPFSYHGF
Kind of experiment: AOC2 biochemical assay (Amplex Red). The procedure:
The Amplex® Red Assay (commercially available from Thermo Fisher Scientific) provides a sensitive method for the detection of H2O2 generated during enzymatic reactions like the amine oxidation catalyzed by AOC2. […] An aliquot of 5 μL of the compound dilution is added to a 96 well plate (flat bottom F, black, GREINER bio-one, #655900) in a DMSO concentration of 2%. […] Cells are cultured for 3 days in EMEM culture medium containing 10% FCS (#04-00-1A, Biological Industries). After washing twice with ice cold PBS, cells are lysed by mechanic homogenation and cleared supernatants are shock frozen in liquid nitrogen and stored at -80° C. For the determination of AOC2 enzymatic activity cell lysates are thawed on ice and 1:1 diluted with reaction buffer. An Aliquot of 45 μL is added to the compound dilution and incubated for 30 min at 37° C. The enzymatic reaction is started with the addition of 50 μL of Amplex® Red reaction mix (final assay concentration: 100 mM sodiumphosphate, 120 μM Amplex® Red reagent (#A22177 Molecular Probes), 1.5 U/mL Horseradish Peroxidase (#P8375 Sigma-Aldrich), 2 mM phenylethylamine (#[…] Sigma-Aldrich), 0.05% Pluronic F-127 (#P3000MP Sigma-Aldrich), pH 7.4, 37° C.). The turnover per time of the substrate is determined directly with a fluorescence reader (Ex 540 nm/Em 590 nm) like Envision 2104 Multilabel Reader (PERKIN ELMER) for 60 min. (cf. Anal Biochem (1997) 253:169-174; Anal Biochem (1997) 253:162-168)

Another experiment addresses T2, MAO-A (Homo sapiens, UniProt P21397).
T2 construct: purchased Sigma-Aldrich M7316
T2 sequence (P21397 1-527): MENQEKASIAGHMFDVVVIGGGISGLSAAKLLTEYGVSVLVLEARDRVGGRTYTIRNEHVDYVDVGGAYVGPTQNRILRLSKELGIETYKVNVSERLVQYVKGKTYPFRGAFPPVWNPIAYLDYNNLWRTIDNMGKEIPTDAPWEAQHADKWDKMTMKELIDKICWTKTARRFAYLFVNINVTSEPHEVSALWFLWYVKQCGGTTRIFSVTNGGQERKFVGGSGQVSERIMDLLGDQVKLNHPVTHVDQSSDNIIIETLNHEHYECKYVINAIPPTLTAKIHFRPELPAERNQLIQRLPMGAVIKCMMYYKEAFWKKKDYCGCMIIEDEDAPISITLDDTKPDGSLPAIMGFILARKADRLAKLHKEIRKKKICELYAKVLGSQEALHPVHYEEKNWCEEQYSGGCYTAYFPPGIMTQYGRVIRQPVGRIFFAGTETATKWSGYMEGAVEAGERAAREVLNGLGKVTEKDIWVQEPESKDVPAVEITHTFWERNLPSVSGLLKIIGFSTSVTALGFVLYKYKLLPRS
Nature of the experiment: MAO-A biochemical assay (MAO-Glo). From the text:
The MAO-Glo™ Assay (commercially available from PROMEGA, #V1402) provides a sensitive method for the measurement of monoamine oxidase (MAO) activity (Valley, M. P. et al., 2006, Anal. Biochem. 359: 238-246) from a variety of tissues, biofluids or recombinant expressed or purified enzymes. As substrate a derivate of the beetle luciferin ((4S)-4,5-dihydro-2-(6-hydroxybenzothiazolyl)-4-thiazole-carboxylic acid) is used, which is oxidized at a primary amine moiety. After a spontaneous elimination and a catalyzed esterase reaction, the turnover of luciferin by the luciferase is recorded as a signal of MAO-A activity.
An aliquot of 3 μL of the compound dilution is added to a 384 well plate (Optiplate, PS, flat bottom F, black, PERKIN ELMER, #6007270) in a DMSO concentration of 1.025%.
A MAO-A enzyme aliquot (M7316, Sigma-Aldrich) is thawed on ice, diluted in reaction buffer to 1.25 mU/μL and added in a volume of 5 μL to the wells. After incubation for 20 minutes at 37° C., 2 μL of MAO substrate (dissolved in DMSO at 16 mM, diluted to 20 μM in assay buffer to obtain a final assay concentration of 4 μM) is added, mixed, and the mixture further incubated for 60 minutes at 37° C.
The turnover of the substrate is determined by the addition of 10 μL of the Detection Reagent mix which was generated by the addition of reconstitution buffer with esterase (PROMEGA, #V1402) to the luciferin detection reagent (PROMEGA, #V1402). After an incubation period of 20 minutes at 37° C., the luminescent signal is measured with a […], e.g. Envision 2104 Multilabel Reader (PERKIN ELMER).

Where [1] appears, read: comparison table, read-out: IC50 AOC2.
Where [2] appears, read: comparison table, read-out: IC50 MAO-A.

With `COC1CN(S(=O)(=O)c2ccc(OC/C(=C\F)CN)cc2)C1` [Reference compound A, reference compound], the “ratio IC50 AOC2/IC50 AOC3 (fold less active against AOC2 as compared to AOC3)” value on AOC2 (AOC2 versus AOC3) was 52 fold. Besides, the values for the IC50 on AOC2 (setting [1]) and at MAO-A (setting [2]) were 0.156 µM and 2350 nM, respectively.
For the compound `COC(=O)[C@H]1[C@@H]2CN(S(=O)(=O)c3ccc(OC/C(=C\F)CN)nc3)C[C@@H]21` [Example 35, trans-3-[6-((Z)-2-Aminomethyl-3-fluoro-allyloxy)-pyridine-3-sulfonyl]-3-aza-bicyclo[3.1.0]hexane-6-carboxylic acid methyl ester trifluoroacetate], the IC50 at AOC2 (read-out: AOC2 IC50) was 0.277 µM; on MAO-A (IC50, read-out: MAO-A) it was above 50000 nM.
As for `NC/C(=C/F)COc1ccc(S(=O)(=O)N2CC[C@H](O)C2)cn1` [Example 43, (S)-1-[6-(Z)-2-Aminomethyl-3-fluoro-allyloxy]-pyridine-3-sulfonyl]-pyrrolidin-3-ol trifluoroacetate], the IC50 is 0.21 µM on AOC2 (read-out: IC50 AOC2); 49100 nM at MAO-A (IC50, read-out: MAO-A); 49100 nM at MAO-A (setting [2]).
`CN(C)C(=O)C1CN(S(=O)(=O)c2ccc(OC/C(=C\F)CN)nc2)C1` [Example 25]: the IC50 on AOC2 (read-out: AOC2 IC50) was 0.068 µM; at MAO-A (IC50, read-out: MAO-A), above 50000 nM.
On the same counts, the results for `CC(=O)NCC1CCN(S(=O)(=O)c2ccc(OC/C(=C\F)CN)nc2)CC1` [Example 28] are 0.059 µM and above 50000 nM.
On the same counts, the results for `CNC(=O)[C@@H]1CCCN1S(=O)(=O)c1ccc(OC/C(=C\F)CN)nc1` [Example 8] are 0.257 µM and above 50000 nM.
On the same counts, the results for `COC1CCN(S(=O)(=O)c2ccc(OC/C(=C\F)CN)nc2)CC1` [Example 40] are 0.04 µM and above 50000 nM.
As for `NC/C(=C/F)COc1ccc(S(=O)(=O)N2CCC(CC(N)=O)CC2)cn1` [Example 50], the IC50 on AOC2 (read-out: AOC2 IC50) was found to be 0.016 µM; on MAO-A (IC50, read-out: MAO-A) it was 29600 nM.
On the same counts, the results for `NC/C(=C/F)COc1ccc(S(=O)(=O)N2CCC[C@H]2C(N)=O)cn1` [Example 13] are 0.205 µM and above 50000 nM.
On to `NC/C(=C/F)COc1ccc(S(=O)(=O)N2CC(C3CCN(C(=O)C4CC4)CC3)C2)cn1` [Example 26], for which the IC50 is 0.063 µM on AOC2 (read-out: AOC2 IC50) and above 50000 nM at MAO-A (IC50, read-out: MAO-A).
As to `CNC(=O)[C@@H]1CCN(S(=O)(=O)c2ccc(OC/C(=C\F)CN)nc2)C1` [Example 14], the IC50 on AOC2 (read-out: AOC2 IC50) was 0.203 µM; at MAO-A (IC50, read-out: MAO-A), above 50000 nM.
On the same counts, the results for `CNC(=O)C1CCN(S(=O)(=O)c2ccc(OC/C(=C\F)CN)nc2)CC1` [Example 37, trifluoroacetate] are 0.193 µM and above 50000 nM.
Regarding `CC1(C(N)=O)CCN(S(=O)(=O)c2ccc(OC/C(=C\F)CN)nc2)CC1` [Example 49], the IC50 at AOC2 (read-out: AOC2 IC50) is 0.021 µM; at MAO-A (IC50, read-out: MAO-A), above 50000 nM.
Consider `CC1(C(=O)O)CCN(S(=O)(=O)c2ccc(OC/C(=C\F)CN)nc2)CC1` [Example 47], for which the IC50 was 0.005 µM on AOC2 (read-out: AOC2 IC50) and above 50000 nM on MAO-A (IC50, read-out: MAO-A).
Turning to `COC1CN(S(=O)(=O)c2ccc(OC/C(=C\F)CN)nc2)C1` [Example 33], the IC50 on AOC2 (setting [1]) was found to be 0.055 µM; at MAO-A (IC50, read-out: MAO-A), 40500 nM; at MAO-A (setting [2]) it was 40500 nM.
Take `CN1CCN(C2CCN(S(=O)(=O)c3ccc(OC/C(=C\F)CN)nc3)CC2)C1=O` [Example 1, 1-{1-[6-((Z)-2-Aminomethyl-3-fluoro-allyloxy)-pyridine-3-sulfonyl]-piperidine-4-yl}-3-methyl-imidazolidin-2-one trifluoroacetate]: the IC50 was 0.12 µM on AOC2 (read-out: AOC2 IC50) and above 50000 nM on MAO-A (IC50, read-out: MAO-A).
Take `CNC(=O)[C@@H]1[C@@H]2CN(S(=O)(=O)c3ccc(OC/C(=C\F)CN)nc3)C[C@@H]21` [Example 5]: the IC50 on AOC2 (read-out: AOC2 IC50) was 0.345 µM; at MAO-A (IC50, read-out: MAO-A), above 50000 nM.
In the same order, the values of `NC/C(=C/F)COc1ccc(S(=O)(=O)N2C[C@@H]3[C@H](C2)[C@H]3C(=O)O)cn1` [Example 45, trans-3-[6-((Z)-2-Aminomethyl-3-fluoro-allyloxy)-pyridine-3-sulfonyl]-3-aza-bicyclo[3.1.0]hexane-6-carboxylic acid trifluoroacetate] are 0.07 µM and above 50000 nM.
On the same counts, the results for `CC(C)(O)CNC(=O)[C@H]1CCN(S(=O)(=O)c2ccc(OC/C(=C\F)CN)nc2)C1` [Example 2] are 0.272 µM and above 50000 nM.
On the same counts, the results for `COC(=O)C1(C)CCN(S(=O)(=O)c2ccc(OC/C(=C\F)CN)nc2)CC1` [Example 36] are 0.003 µM and 13500 nM.
For the compound `NC/C(=C/F)COc1ccc(S(=O)(=O)N2CCC(C(=O)N3CCOCC3)CC2)cn1` [Example 3], the IC50 is 23.4 µM at AOC2 (value in μM, read-out: AOC2 IC50) and above 50000 nM on MAO-A (IC50, read-out: MAO-A).
As for `COC(=O)CC1CCN(S(=O)(=O)c2ccc(OC/C(=C\F)CN)nc2)CC1` [Example 32], the IC50 on AOC2 (read-out: AOC2 IC50) was found to be 0.039 µM; at MAO-A (IC50, read-out: MAO-A), 38600 nM.
In the same order, the values of `NC/C(=C/F)COc1ccc(S(=O)(=O)N2CC[C@H](C(=O)N3CCOCC3)C2)cn1` [Example 21] are 0.101 µM and above 50000 nM.
On the same counts, the results for `CC1(C(=O)NC2CCOCC2)CCN(S(=O)(=O)c2ccc(OC/C(=C\F)CN)nc2)CC1` [Example 48, 1-[6-((Z)-2-Aminomethyl-3-fluoro-allyloxy)-pyridine-3-sulfonyl]-4-methyl-piperidine-4-carboxylic acid (tetrahydropyran-4-yl)-amide trifluoroacetate] are 0.073 µM and above 50000 nM.
In the same order, the values of `CNC(=O)[C@H]1CCN(S(=O)(=O)c2ccc(OC/C(=C\F)CN)nc2)C1` [Example 11] are 0.21 µM and above 50000 nM.
In the case of `CN(C)C(=O)C1CCN(S(=O)(=O)c2ccc(OC/C(=C\F)CN)nc2)CC1` [Example 17], the IC50 on AOC2 (read-out: AOC2 IC50) was 0.189 µM; on MAO-A (IC50, read-out: MAO-A), above 50000 nM.
